Measurements taken from patent US5866775A, “Glyphosate-tolerant 5-enolpyruvyl-3-phosphoshikimate synthases” (Monsanto Company, priority 1990, dated 1999).

Target: T1, pMON8252 encoded petunia EPSPS variant, glycine (101) to alanine and alanine (192) to threonine (Petunia hybrida, UniProt P11043, A264T/G173A)
T1 construct: alanine 192 in the mature petunia EPSP synthase; made in house; host or cells: E. coli SR481 (aroA-)
Assay: EPSP synthase kinetic constants (appKm PEP, appKi glyphosate)
Assay type: biochemical
Settings: extract of SR481 cells with pMON8252
Method: The balance of the #742 preculture (~750 μl) was used to inoculate 2 ml of 2XYT medium containing 50 μg/ml carbenicillin and was shaken overnight at 37° C. to reach saturation. Plasmid DNA was isolated from an aliquot of the saturated culture using an alkaline lysis procedure. The plasmid was designated pMON8252. An aliquot of the pMON8252 plasmid was used to transform the E. coli host SR481 (described above) and reselected on MOPS medium containing 10 mM glyphosate and 50 μg/ml carbenicillin. A single glyphosate resistant colony of pMON8252 was picked off the selection plate and used to inoculate 3 ml of 2XY1 bacterial medium containing 50 μg/ml carbenicillin. The culture was then aerated on a rotating wheel at 37° C. until saturated and then used to inoculate a larger 250 ml culture. The large culture was grown to saturation by continuously shaking it overnight at 37° C. in a water bath. The bacterial cells were lysed and the extracts were assayed for EPSPS activity.
Specifically, the bacterial cell paste was washed twice with 0.9% saline, suspended in buffer (100 mM Tris-HCl, 5 mM benzamidine HCl) and passed twice through a French Pressure Cell at 1000 psi. The cell extract was separated from the cells by centrifuging at 15,000×gravity for 10 minutes at 5° C. It was desalted using Sephadex G-50 (Pharmacia, Piscataway, N.J.). The desalted extract was assayed for EPSP synthase activity as follows.
Kinetic constants (appKm PEP and appKi glyphosate) were determined for EPSP synthase as described below. Substrate kinetic parameters were determined at pH 7.9 in 50 mM HEPES (N-[2-hydroxyethyl]piperazine-N'-[2-ethanesulfonic acid]) buffer in the presence of 2 mM S3P and varying amounts of ^14 C-PEP (10 μM-400 μM), for 2.0 minutes at 25° C. Reactions were quenched with 100 mM NaAcetate in ethanol, pH 4.5, centrifuged and analyzed for product EPSP formation by HPLC with flow radioactivity detection. HPLC conditions were 0.35M KPi, pH 6.5, on a Synchropak AX100 column at 1.0 ml/minute.

T1 sequence (P11043 73-516 G173A/A264T): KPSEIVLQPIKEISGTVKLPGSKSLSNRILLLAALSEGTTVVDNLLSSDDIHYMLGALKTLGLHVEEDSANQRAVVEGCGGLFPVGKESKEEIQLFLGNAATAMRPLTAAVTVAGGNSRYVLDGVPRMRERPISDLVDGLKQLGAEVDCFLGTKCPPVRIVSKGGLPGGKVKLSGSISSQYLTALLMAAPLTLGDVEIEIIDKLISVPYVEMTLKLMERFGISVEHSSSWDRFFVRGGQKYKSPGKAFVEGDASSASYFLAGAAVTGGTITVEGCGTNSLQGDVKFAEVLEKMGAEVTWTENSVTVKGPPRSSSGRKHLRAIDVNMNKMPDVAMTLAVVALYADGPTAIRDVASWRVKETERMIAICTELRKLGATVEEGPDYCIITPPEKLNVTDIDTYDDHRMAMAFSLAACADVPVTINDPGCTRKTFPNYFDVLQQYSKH

C=C(OP(=O)(O)O)C(=O)O [PEP, phosphoenolpyruvate]
Km for PEP: 54 µM
